Patent US20060189650A1, “Novel piperidine derivatives as modulators of chemokine receptor ccr5” (priority 2002, published 2006)

Molecular target: recombinant human CCR5 receptor (Homo sapiens, UniProt P51681)
Test: MIP-1α radioligand binding assay (scintillation proximity, CHO cell membranes)
Conditions: negative log (base 10) of IC50, displacement of 0.1 nM iodinated MIP-1α; average if tested more than once
Method: The ability of compounds to inhibit the binding of MIP-1α was assessed by an in vitro radioligand binding assay. Membranes were prepared from Chinese hamster ovary cells which expressed the recombinant human CCR5 receptor. These membranes were incubated with 0.1 nM iodinated MIP-1α, scintillation proximity beads and various concentrations of the compounds of the invention in 96-well plates. The amount of iodinated MIP-1α bound to the receptor was determined by scintillation counting. Competition curves were obtained for compounds and the concentration of compound which displaced 50% of bound iodinated MIP-1α was calculated (IC50).
In Table XV the results are presented as Pic50 values. A Pic50 value is the negative log (to base 10) of the IC50 result, so an IC50 of 1 μM (that is 1×10^−6M) gives a Pic50 of 6. If a compound was tested more than once then the data below is an average of the probative tests results.

recombinant human CCR5 receptor, sequence (P51681 whole entry): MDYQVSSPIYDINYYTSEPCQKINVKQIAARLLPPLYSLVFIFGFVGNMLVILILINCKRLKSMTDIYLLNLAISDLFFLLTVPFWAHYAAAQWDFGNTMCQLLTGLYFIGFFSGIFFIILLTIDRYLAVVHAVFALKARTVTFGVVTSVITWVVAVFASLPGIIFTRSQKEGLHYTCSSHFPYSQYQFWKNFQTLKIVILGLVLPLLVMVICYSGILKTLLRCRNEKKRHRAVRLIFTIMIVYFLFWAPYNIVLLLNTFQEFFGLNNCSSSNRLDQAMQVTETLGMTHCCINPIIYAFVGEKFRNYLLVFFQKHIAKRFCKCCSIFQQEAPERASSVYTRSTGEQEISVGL

| IC50 | Compound |
| --- | --- |
| 1.58 nM | CS(=O)(=O)c1ccc(S(=O)(=O)CCC2CCN(CC[C@H](NC(=O)c3ccc(Cl)cc3)c3ccccc3)CC2)cc1 [Table IV Compound 2] |
| 0.631 nM | CS(=O)(=O)c1ccc([C@@H](CCN2CCC(CCS(=O)(=O)c3ccc(S(C)(=O)=O)cc3)CC2)c2cc(F)cc(F)c2)cc1 [Table V Compound 7, 1-{(3R)-3-(3,5-difluorophenyl)-3-[4-(methylsulfonyl)phenyl]propyl}-4-(2-{[4-(methylsulfonyl)phenyl]sulfonyl}ethyl)piperidine] |
| 2 nM | Cn1nnc(-c2ccc(S(=O)(=O)CCC3CCN(CC[C@H](c4ccc(S(C)(=O)=O)cc4)c4cc(F)cc(F)c4)CC3)cc2)n1 [Table V Compound 19, 1-{(3R)-3-(3,5-difluorophenyl)-3-[4-(methylsulfonyl)phenyl]propyl}-4-(2-{[4-(2-methyl-2H-tetrazol-5-yl)phenyl]sulfonyl}ethyl)piperidine] |
